Test results as given in paper PMC8745330, “Aromatic Sulfonamides including a Sulfonic Acid Tail: New Membrane Impermeant Carbonic Anhydrase Inhibitors for Targeting Selectively the Cancer-Associated Isoforms” (International Journal of Molecular Sciences, 2021).
Several values for one entry are separate records, joined by “and”; a condition that tells them apart may be missing. Identical values can stand only once. Counter-ions that a name gives are not always drawn.

Legend:
[1] = target: T1, hCA IX (Homo sapiens, UniProt Q16790); assay: stopped flow CO2 hydrase assay, CA IX; type: biochemical; conditions: for Selectivity index (SI) CA I/CA IX / Selectivity index (SI) CA II/CA IX: ratio between KI values; for Ki: stopped flow CO2 hydrase assay, mean from 3 different assays, errors ±5–10%
T1 construct: made in house
Method: (§1) An Applied Photophysics stopped-flow instrument was used for assaying the CA catalyzed CO2 hydration activity. Phenol red (at a concentration of 0.2 mM) was used as an indicator, working at the absorbance maximum of 557 nm, with 20 mM HEPES (pH 7.5) as buffer, and 20 mM Na2SO4 (for maintaining constant the ionic strength), following the initial rates of the CA-catalyzed CO2 hydration reaction for a period of 10–100 s. The CO2 concentrations ranged from 1.7 to 17 mM for the determination of the kinetic parameters and inhibition constants. For each inhibitor, at least six traces of the initial 5–10% of the reaction were used for determining the initial velocity. The uncatalyzed rates were determined in the same manner and subtracted from the total observed rates. Stock solutions of inhibitor (0.1 mM) were prepared in distilled–deionized water, and dilutions up to 0.01 nM were done thereafter with the assay buffer. Inhibitor and enzyme solutions were preincubated together for 45 min at room temperature prior to assay in order to allow for the formation of the E–I complex. The inhibition constants were obtained by non-linear least-squares methods using PRISM 3 and the Cheng–Prusoff equation, as reported earlier, representing the mean from at least three different determinations. […] All CA isoforms were recombinant ones obtained in-house, as reported earlier.

[2] = target: T2, hCA IV (Homo sapiens, UniProt P22748); assay: stopped flow CO2 hydrase assay, CA IV; type: biochemical; conditions: mean from 3 different assays, errors ±5–10%
T2 construct: made in house
Method: as §1

[3] = target: T3, hCA XII (Homo sapiens, UniProt O43570); assay: stopped flow CO2 hydrase assay, CA XII; type: biochemical; conditions: for Selectivity index (SI) CA I/CA XII / Selectivity index (SI) CA II/CA XII: ratio between KI values; for Ki: stopped flow CO2 hydrase assay, mean from 3 different assays, errors ±5–10%
T3 construct: made in house
Method: as §1

[4] = target: T4, hCA I (Homo sapiens, UniProt P00915); assay: stopped flow CO2 hydrase assay, CA I; type: biochemical; conditions: mean from 3 different assays, errors ±5–10%
T4 construct: made in house
Method: as §1

[5] = target: T5, hCA II (Homo sapiens, UniProt P00918); assay: stopped flow CO2 hydrase assay, CA II; type: biochemical; conditions: mean from 3 different assays, errors ±5–10%
T5 construct: made in house
Method: as §1

[6] = Caco-2 cell viability by MTS; type: cell-based; conditions: human; Caco-2 cells, 50 μM, 2 h of exposure, MTS; data not shown
Method: The colorectal adenocarcinoma cell line Caco-2 was purchased from American Tissue Type Culture Collection (Manassas, VA, USA) and cultured in Dulbecco’s modified Eagle’s medium (DMEM) (Thermo Fisher Scientific, Rodano, Milan, Italy) with 20% fetal bovine serum (FBS) (Thermo Fisher Scientific, Rodano, Milan, Italy) and 100 U/mL penicillin–streptomycin (Thermo Fisher Scientific, Rodano, Milan, Italy) in 5% CO2 at 37 °C. Cell viability was determined by MTS after 2 h of exposure to the aliphatic sulfonate CAIs at 50 µM concentration, as previously described.

T3 sequence (O43570 25-354): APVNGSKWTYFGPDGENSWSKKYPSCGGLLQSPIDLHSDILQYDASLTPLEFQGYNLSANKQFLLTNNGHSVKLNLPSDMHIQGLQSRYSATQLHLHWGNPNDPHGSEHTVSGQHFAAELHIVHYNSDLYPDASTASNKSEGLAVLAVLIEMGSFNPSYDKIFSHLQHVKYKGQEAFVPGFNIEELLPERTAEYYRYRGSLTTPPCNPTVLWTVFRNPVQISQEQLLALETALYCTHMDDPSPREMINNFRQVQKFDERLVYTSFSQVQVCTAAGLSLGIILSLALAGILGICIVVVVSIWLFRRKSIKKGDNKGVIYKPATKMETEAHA
T4 sequence (P00915 whole entry): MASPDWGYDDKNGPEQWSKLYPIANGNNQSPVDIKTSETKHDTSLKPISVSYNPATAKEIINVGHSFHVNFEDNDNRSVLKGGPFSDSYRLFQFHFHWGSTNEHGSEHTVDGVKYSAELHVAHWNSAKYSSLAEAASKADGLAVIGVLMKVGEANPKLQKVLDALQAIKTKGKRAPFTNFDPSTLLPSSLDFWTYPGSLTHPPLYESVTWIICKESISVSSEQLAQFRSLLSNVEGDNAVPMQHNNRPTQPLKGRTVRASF
T2 sequence (P22748 19-312): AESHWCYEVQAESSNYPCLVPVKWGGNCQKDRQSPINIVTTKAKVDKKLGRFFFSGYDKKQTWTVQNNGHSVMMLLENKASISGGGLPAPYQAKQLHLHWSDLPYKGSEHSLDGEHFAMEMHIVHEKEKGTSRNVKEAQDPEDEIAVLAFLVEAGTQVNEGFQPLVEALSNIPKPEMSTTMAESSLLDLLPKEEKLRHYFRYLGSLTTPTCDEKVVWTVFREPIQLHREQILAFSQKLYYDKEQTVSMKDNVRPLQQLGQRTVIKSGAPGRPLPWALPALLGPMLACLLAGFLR

Molecule	melting point	Selectivity index (SI) CA I/CA IX [1]	Selectivity index (SI) CA II/CA IX [1]	Ki [1]	Ki [2]	Selectivity index (SI) CA I/CA XII [3]	Selectivity index (SI) CA II/CA XII [3]	Ki [3]	Ki [4]	Ki [5]	viability at 2 h, 50 µM [6]
CC(=O)Nc1cc(S(N)(=O)=O)ccc1OCc1cn(CCCCS(=O)(=O)O)nn1 (as salt: sodium) [Compound 50]	> 300 °C	–	–	–	–	–	–	–	–	–	–
CCC(=O)Nc1cc(S(N)(=O)=O)ccc1OCc1cn(CCCCS(=O)(=O)O)nn1 (as salt: sodium) [Compound 51]	> 300 °C	–	–	–	–	–	–	–	–	–	–
C#CCNC(=S)Nc1ccc(S(N)(=O)=O)cc1 [Compound 29]	235 to 238 °C	–	–	–	–	–	–	–	–	–	–
NS(=O)(=O)c1ccc(-c2cn(CCCS(=O)(=O)[O-])nn2)cc1.[Na+] [Compound 30, Sodium 3-(4-(4-sulfamoylphenyl)-1H-1,2,3-triazol-1-yl)propane-1-sulfonate]	> 300 °C	2.3	0.09	35.9 nM	429 nM	12	0.48	6.7 nM	83.5 nM	3.2 nM	–
NS(=O)(=O)c1ccc(OCc2cn(CCCS(=O)(=O)[O-])nn2)cc1.[Na+] [Compound 31, Sodium 3-(4-((4-sulfamoylphenoxy)methyl)-1H-1,2,3-triazol-1-yl)propane-1-sulfonate]	290 to 293 °C	1.8	0.02	44.4 nM	38.3 nM	1.7	0.02	47.7 nM	82.7 nM	0.9 nM	–
NS(=O)(=O)c1ccc(NCc2cn(CCCS(=O)(=O)[O-])nn2)cc1.[Na+] [Compound 32, Sodium 3-(4-(((4-sulfamoylphenyl)amino)methyl)-1H-1,2,3-triazol-1-yl)propane-1-sulfonate]	> 300 °C	1.0	0.01	459 nM	43.1 nM	1.1	0.01	433 nM	460 nM	4.2 nM	–
NS(=O)(=O)c1ccc(C(=O)NCc2cn(CCCS(=O)(=O)[O-])nn2)cc1.[Na+] [Compound 33, Sodium 3-(4-((4-sulfamoylbenzamido)methyl)-1H-1,2,3-triazol-1-yl)propane-1-sulfonate]	> 300 °C	143	1.3	3.2 nM	56.3 nM	48 and 48.2	0.45	9.5 nM	458 nM	4.3 nM	> 95%
NS(=O)(=O)c1ccc(NC(=O)NCc2cn(CCCS(=O)(=O)[O-])nn2)cc1.[Na+] [Compound 34, Sodium 3-(4-((3-(4-sulfamoylphenyl)ureido)methyl)-1H-1,2,3-triazol-1-yl)propane-1-sulfonate]	> 300 °C	9.1	0.11	68.2 nM	63.5 nM	9.2	0.11	67.6 nM	622 nM	7.4 nM	> 95%
NS(=O)(=O)c1ccc(CNC(=O)NCc2cn(CCCS(=O)(=O)[O-])nn2)cc1.[Na+] [Compound 35, Sodium 3-(4-((3-(4-sulfamoylbenzyl)ureido)methyl)-1H-1,2,3-triazol-1-yl)propane-1-sulfonate]	295 to 297 °C	11	1.9	71.8 nM	50.2 nM	49	8.4	16.4 nM	807 nM	139 nM	–
NS(=O)(=O)c1ccc(CCNC(=O)NCc2cn(CCCS(=O)(=O)[O-])nn2)cc1.[Na+] [Compound 36, Sodium 3-(4-((3-(4-sulfamoylphenethyl)ureido)methyl)-1H-1,2,3-triazol-1-yl)propane-1-sulfonate]	217 to 219 °C	0.3	0.15	282 nM	870 nM	8.8	4.9	8.7 nM	76.8 nM	43.1 nM	–
NS(=O)(=O)c1ccc(NC(=S)NCc2cn(CCCS(=O)(=O)[O-])nn2)cc1.[Na+] [Compound 37, Sodium 3-(4-((3-(4-sulfamoylphenyl)thioureido)methyl)-1H-1,2,3-triazol-1-yl)propane-1-sulfonate]	230 to 232 °C	–	0.42	51.2 nM	78.1 nM	8.5	2.2	9.4 nM	79.9 nM	21.4 nM	–
CCC(=O)Nc1cc(S(N)(=O)=O)ccc1OCc1cn(CCCS(=O)(=O)[O-])nn1.[Na+] [Compound 40, Sodium 3-(4-((2-propionamido-4-sulfamoylphenoxy)methyl)-1H-1,2,3-triazol-1-yl)propane-1-sulfonate]	> 300 °C	167	0.12	54.8 nM	322 nM	194	0.14	47.1 nM	9160 nM	6.6 nM	–
CC(=O)Nc1cc(S(N)(=O)=O)ccc1OCc1cn(CCCCS(=O)(=O)O)nn1 [Compound 50]	–	–	3.2	82.5 nM	3560 nM	–	6.5	40.6 nM	7690 nM	263 nM	–
CCC(=O)Nc1cc(S(N)(=O)=O)ccc1OCc1cn(CCCCS(=O)(=O)O)nn1 [Compound 51]	–	–	–	236 nM	> 10000 nM	–	–	7.3 nM	3650 nM	39.9 nM	–
Sodium 3-(4-((3-(4-sulfamoylbenzyl)ureido)methyl)-1H-1,2,3-triazol-1-yl)butane-1-sulfonate [Compound 46]	–	–	–	133 nM	636 nM	–	–	31.3 nM	651 nM	332 nM	–
Sodium 3-(4-((3-(4-sulfamoylphenethyl)ureido)methyl)-1H-1,2,3-triazol-1-yl)butane-1-sulfonate [Compound 47]	–	–	–	68.1 nM	473 nM	–	–	64 nM	82.3 nM	41.3 nM	–
Sodium 3-(4-((3-(4-sulfamoylphenyl)thioureido)methyl)-1H-1,2,3-triazol-1-yl)butane-1-sulfonate [Compound 48]	–	–	–	8.8 nM	557 nM	–	–	31.5 nM	62.4 nM	5.8 nM	–
Sodium 3-(4-((3-(4-sulfamoylphenyl)ureido)methyl)-1H-1,2,3-triazol-1-yl)butane-1-sulfonate [Compound 45]	–	1.3	0.11	372 nM	150 nM	14	1.2	33.6 nM	496 nM	41.1 nM	–
Sodium 3-(4-((4-(3-(4-sulfamoylphenyl)ureido)phenoxy)methyl)-1H-1,2,3-triazol-1-yl)butane-1-sulfonate [Compound 49]	–	–	–	32.2 nM	4540 nM	–	–	53.2 nM	91.9 nM	18.8 nM	–
Sodium 3-(4-((4-sulfamoylbenzamido)methyl)-1H-1,2,3-triazol-1-yl)butane-1-sulfonate [Compound 44]	–	3.3	0.44	50.7 nM	651 nM	5.2	0.70	32.2 nM	168 nM	22.5 nM	–
Sodium 3-(4-((4-sulfamoylphenoxy)methyl)-1H-1,2,3-triazol-1-yl)butane-1-sulfonate [Compound 42]	–	1.6	0.49	60.2 nM	750 nM	4.1	1.2	23.1 nM	96.8 nM	29.5 nM	–
